Data taken from patent publication US10288626B2, “Secreted tumor-associated cytochrome as a blood-based biomarker for cancer” (University of Kentucky Research Foundation, priority 2012, dated 2019).
pIC50: −log10 of the molar value.

What was measured:
EGFR = conditions: cited from earlier work
tumor cells = conditions: cited from earlier work
NCI-H226 cells = test: Viability / growth of NCI-H226 squamous cell lung cancer cells treated with AG-205; format: cell-based; conditions: 96 hours
Method: FIG. 2 depicts Pgrmc1 expression and biological activity in SCLC cell lines. (A) Pgrmc1 expression was tested in a group of 3 commonly used SCLC cell lines (upper panel), and ku70 was used as a loading control (lower panel). […] Cells were maintained in medium lacking serum for the indicated time and in all cases, viability was determined by cell counting. (C) Pgrmc1 expression was inhibited by siRNA transfection (upper panel, lane 2) relative to the control transfection (upper panel, lane 1). […] Cells were maintained in media lacking serum for the indicated times. (E) The expression of the exogenous Pgrmc1-hbd protein was detected by western blot in NCI-H226 cells infected with a control adenovirus (lane 1), encoding LacZ, or the Pgrmc1-hbd expression virus (lane 2). The top panel was probed with an antibody to the HA epitope tag sequence, with which Pgrmc1-hbd is fused. (F) NCI-H226 cells were treated with increasing doses of the Pgrmc1 inhibitor AG-205 and maintained with serum (dashed line) or without serum (solid line) for 96 hours.
Tissue culture: […], SK-MES-1 and SW900 squamous cell lung cancer cells and A549 lung adenocarcinoma cells were obtained from the American type culture collection (ATCC) and cultured according to their instructions. The identities of the cell lines were confirmed by Genetica DNA Laboratories (Cincinnati, Ohio). […]
Conditioned media from control and Pgrmc1 knockdown A549 NSCLC cells were generated by incubating cells in serum-free DMEM media for 24 hours. […] For fluorescent activated cell sorting (FACS), cells were stained with propidium iodide and analyzed as described (Mallory et al., Mol Pharmacol 2005, 68: 1747-56). […] For viability assays, cells were plated in 24 well dishes, washed with PBS and harvested by trypsinization and counted using a hemocytometer. Where indicated, cells were plated in 96 well dishes, and viability was measured by 3-(4,5-Dimethylthiazol-2-yl)-2,5-diphenyltetrazolium bromide (MTT) assay, as described (Hand and Craven. J Cell Biochem 2003, 90:534-47).

**Q.** For Cc1ccc2c(c1)[C@H]1CN(C)CC[C@H]1N2C(=O)CSc1nnnn1-c1ccc(Cl)cc1 [AG-205], which “effect on EGFR levels” value (EGFR) is on record?
**A.** decreases EGFR levels

**Q.** And the “effect on growth in tumor cells” value (tumor cells)?
**A.** inhibits growth

**Q.** What about the pIC50 (NCI-H226 cells; absence of serum, read-out: IC50, growth inhibition of NCI-H226 cells) of the same compound?
**A.** 5.05

**Q.** What about the “effect on viability of NCI-H226 cells” value (NCI-H226 cells; absence of serum, increasing doses) of the same compound?
**A.** loss of viability

**Q.** And the “activity on growth of NCI-H226 cells” value (NCI-H226 cells; presence of serum)?
**A.** minimal activity
